# Source: patent publication US9150555B2, “Amide derivative and use thereof” (Mitsubishi Tanabe Pharma Corporation, priority 2010, dated 2015)
# Read-outs that look alike come from different tables or passages of the source.
# Columns and labels:
# [1] = tested on: IL-17 production of mouse spleen cells stimulated by rm-IL-23; assay: Production of IL-17 induced when mouse spleen cells were stimulated by recombinant mouse interleukin-23 (rm-IL-23); format: cell-based; conditions: inhibition of IL-17 production, DBA/1J mouse spleen cells, rm-IL-23 1 nmol/L, ELISA
# Outline: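 Spleen cells from 6-7 week-old male DBA/1J mice, 2×10^5 cells/well in 10% FCS RPMI1640, cultured 72 h at 37° C with compound (1 to 1,000 nmol/L) plus 1 nmol/L rm-IL-23. IL-17 in supernatant by ELISA; viability by WST-8 absorbance at 450 nm; IC50 by linear regression of inhibition rate.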
# [2] = target: T1, hERG (Homo sapiens, UniProt Q12809); assay: in vitro; conditions: pH 7.4, hERG inhibition rate (%) (1 μM)
# Method: (§1) Dimethylsulfoxide was used as a vehicle and hERG-expressed HEK 293 cells (Cytomyx) were used as test cells. Test cells were once cultured and subdivided and were stored under frozen condition in liquid nitrogen. In the study, thawed and subcultured cells having less than 30 of the passage number were used. Test cells were cultured in a carbon dioxide incubator BNP-110M (Tabai Espec Corp.) at 37±1° C., and 5.0±0.5% of carbon dioxide concentration. The component of culture medium was MEM (Minimum Essential Medium) supplemented with 10 vol % fetal bovine serum (non-activated), 1 mmol/L sodium pyruvate, 0.1 mmol/L non-essential amino acid, 100 U/mL penicillin with 100 μg/mL streptomycin. To select gene-expressing cells, 400 μg/mL G418 Sulphate (Invitrogen) was added to the culture medium. In the dishes for the measurement, the medium which not contain G418 Sulphate (Invitrogen) was used.
# (§2) As to seeding of cells for measurement, subcultured cells which became confluent were treated with 0.25% trypsin-solution containing 1 mmol/L EDTA (Invitrogen) to remove from the plate, and seeded on sterilized collagen-coated cover glass (Iwaki, AGC Techno Glass Co., LTD). The medium was exchanged appropriately, including the day of measurement.
# (§3) A perfusion method was applied to the experiment. Test cells were perfused (perfusion speed: approximately 4 mL/min) with an external solution containing specified concentrations of test compounds (component of external solution: 137 mmol/L of sodium chloride, 4 mmol/L of potassium chloride, 10 mmol/L of HEPES, 1.8 mmol/L of calcium chloride, 1 mmol/L of magnesium chloride and 10 mmol/L of glucose; adjusted to pH 7.4±0.1 with sodium hydroxide aqueous solution). […] When effects were observed, the perfusion was continued until the maximum response was observed. […] The data were obtained from one experiment or more and the cells which were incubated in a carbon dioxide incubator after seeding and attached to cover slips were used for the measurement.
# (§4) A whole-cell clamping method was applied to the measurement. Test cells were perfused (perfusion speed: approximately 4 mL/min) with an external solution (component of external solution: 137 mmol/L of sodium chloride, 4 mmol/L of potassium chloride, 10 mmol/L of HEPES, 1.8 mmol/L of calcium chloride, 1 mmol/L of magnesium chloride and 10 mmol/L of glucose; adjusted to pH 7.4±0.1 with sodium hydroxide aqueous solution). A glass electrode with a resistance of 2 to 6 MΩ, filled with an internal solution (component: 130 mmol/L of potassium chloride, 1 mmol/L of magnesium chloride, 5 mmol/L of EGTA, 10 mmol/L of HEPES and 5 mmol/L of ATP adjusted to pH 7.2±0.1 with sodium hydroxide aqueous solution) was used. After rupturing cell membrane with glass electrode, the cell membrane voltage was held at −80 mV via a patch clamp software (pCLAMP9 [Axon CNS], Molecular Devices) using patch clamp amplifier (EPC8, HEKA). […] Test cells and the cell-attached cover glass were changed every treatment. Temperature of the fluid in a perfusion fluid tank was 24±2° C.
# (§5) The obtained current was recorded on a computer via a patch clamp amplifier using patch clamp software. An evaluation item was a tail peak current.
# (§6) A tail peak current was analyzed using analyzing software (Clampfit 9 [Axon CNS], MolecularDevices). Each 2 pulses of before and after perfusion of test compound for each concentration was analyzed, and a peak values of the tail current on the pulses were determined. The inhibition ratio was determined according to the following equation:
# [3] = target: T2, hERG current in hERG-expressed HEK 293 cells (Homo sapiens, UniProt Q12809); assay: Effects on hERG current (whole-cell clamping); conditions: 1 μM; tail peak current; hERG-expressed HEK 293 cells
# Method: as §1, §2, §3, §4, §5, §6
# [4] = target: T2, hERG current in hERG-expressed HEK 293 cells
# Method: as §1, §2, §3, §4, §5, §6
# [5] = target: T1, hERG; assay: Effects on hERG current (whole-cell clamping); conditions: human, HEK 293 cells that express hERG, pH 7.4, hERG inhibition rate (%) (1 μM), 1 μM; tail peak current; hERG-expressed HEK 293 cells
# Method: as §1, §2, §3, §4, §5, §6
# [6] = tested on: Type II collagen-induced arthritis in DBA/1J mice; assay: Type II collagen-induced arthritis in DBA/1J mice; format: in vivo, mouse; conditions: dose showing significant inhibitory effect on arthritis, oral, once a day for three weeks from booster immunization
# Method: Effect on Type II Collagen-Induced Arthritis in DBA/1J Mice
# An emulsion was prepared by mixing bovine II collagen (100-200 μg purchased from collagen Gijyutsu Kenshuukai) and Freund's complete adjuvant (Sigma Aldrich) containing killed Mycobacterium tuberculosis H37Ra. Arthritis was induced by immunization through subcutaneous administration of the emulsion to the tail of 6-7 week-old male DBA/1J mouse (Charles River Japan, Inc.), followed by booster immunization three weeks later by administration of an emulsion prepared by mixing bovine II collagen with Freund's incomplete adjuvant (Sigma-Aldrich). Test compound was suspended or dissolved in 0.5% carboxymethylcellulose (Sigma-Aldrich) and repeatedly administered orally once a day at a dose of 0.1 to 10 mg/kg body weight using an oralsonde for three weeks from the day of booster immunization. In this model, the symptom of arthritis of the limbs was each evaluated according to the following evaluation criteria of 0 to 4 scores: 0, No change; 1, edema in only one joint; 2, edema in two or more joints, or light edema of the entire limb; 3, severe edema of the entire limb; 4, severe edema of the entire limb and ankylosis and immovability of joint. The score of arthritis of each mouse was expressed as the total of the scores of the limbs (Maximum: 16 points). On the next day of the last administration, soft X-ray photograph of the limbs was taken with soft X-ray equipment (Omic), and the level of joint destruction was evaluated by observation under a microscope. In each finger of the limbs the score of joint destruction was judged as 0 when no joint destruction was found, and as 1 when one or more destruction was found, and the score of joint destruction of a mouse was expressed as the total of scores for each finger of limb (Maximum: 20). The arthritis score and joint destruction score were expressed as the average value and standard error for each group (n=6-8). Only a vehicle was administered in a control group, and statistical analysis was performed by Dunnett's multiple comparison test, in which the case was judged as significant when the p value was less than 0.05.
# T1 sequence (Q12809 whole entry): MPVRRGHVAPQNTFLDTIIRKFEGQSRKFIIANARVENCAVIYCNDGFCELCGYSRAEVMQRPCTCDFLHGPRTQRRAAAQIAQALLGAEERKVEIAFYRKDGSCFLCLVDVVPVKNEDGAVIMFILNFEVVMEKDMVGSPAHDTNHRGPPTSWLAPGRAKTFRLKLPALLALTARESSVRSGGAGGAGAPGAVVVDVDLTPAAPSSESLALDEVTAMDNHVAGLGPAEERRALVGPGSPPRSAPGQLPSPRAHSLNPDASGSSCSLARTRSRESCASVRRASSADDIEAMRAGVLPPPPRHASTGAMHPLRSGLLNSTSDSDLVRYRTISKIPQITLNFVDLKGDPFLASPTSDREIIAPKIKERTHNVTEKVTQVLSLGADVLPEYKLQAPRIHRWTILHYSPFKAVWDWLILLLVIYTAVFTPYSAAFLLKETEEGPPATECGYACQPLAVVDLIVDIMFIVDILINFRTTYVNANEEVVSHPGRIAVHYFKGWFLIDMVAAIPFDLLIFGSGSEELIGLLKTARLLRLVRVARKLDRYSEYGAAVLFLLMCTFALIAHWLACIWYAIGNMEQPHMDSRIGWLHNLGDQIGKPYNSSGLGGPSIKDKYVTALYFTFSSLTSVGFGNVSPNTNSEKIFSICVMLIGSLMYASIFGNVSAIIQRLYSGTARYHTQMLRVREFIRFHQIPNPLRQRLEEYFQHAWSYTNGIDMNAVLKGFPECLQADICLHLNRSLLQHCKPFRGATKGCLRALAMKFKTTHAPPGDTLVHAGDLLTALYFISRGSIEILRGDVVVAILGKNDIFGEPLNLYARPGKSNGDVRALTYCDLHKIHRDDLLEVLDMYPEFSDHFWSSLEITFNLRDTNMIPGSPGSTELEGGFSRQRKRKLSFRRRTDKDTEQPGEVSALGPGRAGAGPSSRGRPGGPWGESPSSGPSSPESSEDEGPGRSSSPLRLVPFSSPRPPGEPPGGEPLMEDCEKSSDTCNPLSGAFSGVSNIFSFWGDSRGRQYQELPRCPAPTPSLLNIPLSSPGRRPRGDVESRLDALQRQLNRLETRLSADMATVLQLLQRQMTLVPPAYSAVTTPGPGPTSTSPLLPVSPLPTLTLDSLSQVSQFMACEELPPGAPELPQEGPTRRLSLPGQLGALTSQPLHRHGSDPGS
# T2 sequence (Q12809 whole entry): as above
SMILES,IC50 ([1]; 72 hours),inhibition at 1 µM [2],further results
"Cc1c(C(=O)Nc2ccc(C3(C#N)CCN([C@H]4CCO[C@H]4C)CC3)nc2)cnn1-c1ccc(C(F)(F)F)cn1 (relative stereo) [Example D8, cis-N-{6-[4-Cyano-1-(2-methyltetrahydrofuran-3-yl)piperidin-4-yl]pyridin-3-yl}-5-methyl-1-[5-(trifluoromethyl)pyridin-2-yl]-1H-pyrazole-4-carboxamide]",114 nM,15.8%,
"Cc1c(C(=O)Nc2ccc(C3(C#N)CCN([C@H]4CCO[C@H]4C)CC3)nc2)cnn1-c1ccc(C2CC2)cn1 (relative stereo) [Example D10, cis-N-{6-[4-Cyano-1-(2-methyltetrahydrofuran-3-yl)piperidin-4-yl]pyridin-3-yl}-1-(5-cyclopropylpyridin-2-yl)-5-methyl-1H-pyrazole-4-carboxamide]",120 nM,6.7%,
"Cc1c(C(=O)Nc2ccc(C3(C#N)CCN([C@H]4CCO[C@H]4C)CC3)nc2)cnn1-c1ccc(C(F)(F)F)cc1 (relative stereo) [Example D11, cis-N-{6-[4-Cyano-1-(2-methyltetrahydrofuran-3-yl)piperidin-4-yl]pyridin-3-yl}-5-methyl-1-[4-(trifluoromethyl)phenyl]-1H-pyrazole-4-carboxamide]",53.4 nM,21%,
"Cc1ccc(-n2ncc(C(=O)Nc3ccc(C4(C#N)CCC(N5CCOCC5)CC4)nc3)c2C)cc1.Cl (stereo not shown) [Example D2, N-{6-[r-1-Cyano-c-4-(morpholin-4-yl)cyclohexyl]pyridin-3-yl}-5-methyl-1-(4-methylphenyl)-1H-pyrazole-4-carboxamide hydrochloride]",193 nM,,hERG inhibition rate (%) (1 μM) [3]: 43.4%
"COCOC1CCC(C#N)(c2ccc(NC(=O)c3cnn(-c4ccc(C)cc4)c3C)cn2)CC1 (stereo not shown) [Example D3, N-{6-[r-1-Cyano-c-4-(methoxymethoxy)cyclohexyl]pyridin-3-yl}-5-methyl-1-(4-methylphenyl)-1H-pyrazole-4-carboxamide]",182 nM,,hERG inhibition rate (%) (1 μM) [4]: 7.2%
"Cc1c(C(=O)Nc2ccc(C3(C#N)CCN(CC(C)(C)O)CC3)nc2)cnn1-c1ccc(C(F)(F)F)cn1 [Example D9, N-{6-[4-Cyano-1-(2-hydroxy-2-methylpropyl)piperidin-4-yl]pyridin-3-yl}-5-methyl-1-[5-(trifluoromethyl)pyridin-2-yl]-1H-pyrazole-4-carboxamide]",76.7 nM,42.1%,
"Cc1c(C(=O)Nc2ccc(C3(C#N)CCN(CC(C)(C)O)CC3)nc2)cnn1-c1ccc(C2CC2)cn1 [Example D12, N-{6-[4-Cyano-1-(2-hydroxy-2-methylpropyl)piperidin-4-yl]pyridin-3-yl}-1-(5-cyclopropylpyridin-2-yl)-5-methyl-1H-pyrazole-4-carboxamide]",117 nM,29.2%,
Cc1c(C(=O)Nc2ccc(C3(C#N)CCN(CC(C)(C)O)CC3)nc2)cnn1-c1ccc(Cl)cc1 [Example D116],129 nM,41.2%,
Cc1c(C(=O)Nc2ccc(C3(C#N)CCN(CC(C)(C)O)CC3)nc2)cnn1-c1ccc(C(F)(F)F)cc1 [Example D117],57 nM,35.6%,
Cc1cc(NC(=O)c2cnn(-c3ccc(C(F)(F)F)cn3)c2C)cnc1C1=CC[C@@H](N2CCOCC2)CC1 [Example D303],48 nM,,hERG inhibition rate (%) (1 μM) [3]: 22.7%
Cc1c(C(=O)Nc2ccc(C3(C#N)CCN(C4CCOCC4)CC3)nc2)cnn1-c1ccc(C(F)(F)F)cc1 [Example E7],349 nM,21.1%,
Cc1c(C(=O)Nc2ccc([C@]3(C#N)CC[C@@H](O)CC3)nc2)cnn1-c1ccc(C(F)(F)F)cc1 [Example G6],,,"IC50 ([1]; Mus musculus, 72 h): 73.9 nM; inhibition at 1 µM [5]: 26%; Effective Dose [6]: 10 mg/kg"
Cc1c(C(=O)Nc2ccc([C@]3(C#N)CC[C@@H](O)CC3)nc2)cnn1-c1ccc(F)cc1F [Example G7],,,"IC50 ([1]; Mus musculus, 72 h): 198 nM; inhibition at 1 µM [5]: 5.2%; minimal effective dose ([6]; Mus musculus, 504 h): 0.3 mg/kg"
